Assay type in all cases: cell-based
The test system of assay [1] is Mannheimia haemolytica MH 10720 (154). Description: MIC, broth-microdilution (CLSI), strain MH 10720. The following applies: Mannheimia haemolytica 154, BRD field isolate. The protocol: (§1) The Minimum inhibitory concentrations (MIC) of compounds according to the invention for a number of veterinary bacterial pathogens were determined by the broth-microdilution method according to CLSI document VETO 1-A4.
(§2) Microdilution trays containing a doubling dilution series of the test compound were used for the tests. The MIC results were interpreted according to the CLSI documents VET01-S3. The lowest concentration of compound at which no visible growth (i.e. no turbidity) detected by the unaided eye was recorded as the MIC.
Background: Broth dilution looks for growth in wells or tubes with falling amounts of substance.

In assay [2] the test system is Pasteurella multocida PM 6267 (P 2225 (L386)). Description: MIC, broth-microdilution (CLSI), strain PM 6267. As to conditions: Pasteurella multocida P 2225 (L386), reference strain (mouse infection strain). The protocol:
as §1, §2

Assay [3] has as its system Mannheimia haemolytica MH 6357 (M7/2). Description: MIC, broth-microdilution (CLSI), strain MH 6357. As to conditions: Mannheimia haemolytica M7/2, reference strain (cattle infection strain). The protocol:
as §1, §2

Assay [4] deals with Mannheimia haemolytica MH 12587 (1071), macrolide-resistance: erm+, E+. Description: MIC, broth-microdilution (CLSI), strain MH 12587. The following applies: Mannheimia haemolytica 1071, BRD field isolate. The protocol:
as §1, §2

For assay [5], the system named is Mannheimia haemolytica MH 13065 (XB0446-6003.9). The experiment in a line: MIC, broth-microdilution (CLSI), strain MH 13065. As to conditions: Mannheimia haemolytica XB0446-6003.9, BRD field isolate. The protocol:
as §1, §2

The test system of assay [6] is Pasteurella multocida PM 10775 (080130003051). The experiment in a line: MIC, broth-microdilution (CLSI), strain PM 10775. The following applies: Pasteurella multocida 080130003051, BRD field isolate. The protocol:
as §1, §2

Assay [7] concerns Pasteurella multocida PM 6391 (ATCC 43137). Description: MIC, broth-microdilution (CLSI), strain PM 6391. The following applies: Pasteurella multocida ATCC 43137, reference strain. The protocol:
as §1, §2

Assay [8] concerns Mannheimia haemolytica MH 13093 (XB0472-6014.1). Description: MIC, broth-microdilution (CLSI), strain MH 13093. The following applies: Mannheimia haemolytica XB0472-6014.1, BRD field isolate. The protocol:
as §1, §2

Assay [9] has as its system Pasteurella multocida PM 12080 (IV102277-0093). The experiment in a line: MIC, broth-microdilution (CLSI), strain PM 12080. The following applies: Pasteurella multocida IV102277-0093, BRD field isolate. The protocol: as §1, §2
Assay [10] concerns Mannheimia haemolytica MH 6374 (ATCC 33396). The experiment in a line: MIC, broth-microdilution (CLSI), strain MH 6374. As to conditions: Mannheimia haemolytica ATCC 33396, reference strain. The protocol: as §1, §2

In brackets after ≈: the same amount, converted by molar mass.

`CNC(=O)C(NC(=O)c1ccc(C#Cc2ccc(CNCc3ccnc(Cl)c3)cc2)cc1)C(=O)NO` (centres unmarked) [Compound 12]: in assay [1], the “MIC MH 10720” value was at most 0.1 µM. For the same compound, in assay [2], the “MIC PM 6267” value is at most 0.1 µM. Besides, in [3], the “MIC MH 6357” value amounted to 0.2 µM (≈ 0.101 µg/mL). Further, in assay [4], the “MIC MH 12587” value came out at 0.8 µM (≈ 0.405 µg/mL). The “MIC MH 13065” value in assay [5] stood at 0.4 µM (≈ 0.202 µg/mL). Besides, the “MIC PM 10775” value in [6] was at most 0.1 µM. Also, in assay [7], the “MIC PM 6391” value is at most 0.1 µM. Further, in assay [8], the “MIC MH 13093” value was 0.4 µM (≈ 0.202 µg/mL). Besides, the “MIC PM 12080” value in assay [9] was at most 0.1 µM. Moreover, the “MIC MH 6374” value in assay [10] came out at 0.4 µM (≈ 0.202 µg/mL).

For `C#CCNCc1ccc(C#Cc2ccc(C(=O)N(C)C(C(=O)NC)C(=O)NO)cc2)cc1` (centres unmarked) [Compound 30], in assay [1], the “MIC MH 10720” value worked out at 0.4 µM (≈ 0.173 µg/mL). In addition, the “MIC PM 6267” value in [2] came out at 0.4 µM (≈ 0.173 µg/mL). The “MIC MH 6357” value in assay [3] is 0.8 µM (≈ 0.346 µg/mL). Also, the “MIC MH 12587” value in [4] came out at 3.1 µM (≈ 1.34 µg/mL). For the same compound, in [5], the “MIC MH 13065” value was found to be 1.6 µM (≈ 0.692 µg/mL). Moreover, in assay [6], the “MIC PM 10775” value was at most 0.1 µM. Also, the “MIC PM 6391” value in assay [7] came out at 1.6 µM (≈ 0.692 µg/mL). Further, in assay [8], the “MIC MH 13093” value is 1.6 µM (≈ 0.692 µg/mL). The “MIC PM 12080” value in assay [9] worked out at 0.8 µM (≈ 0.346 µg/mL). Also, in assay [10], the “MIC MH 6374” value is 0.8 µM (≈ 0.346 µg/mL).

Turning to `CNC(=O)C(NC(=O)c1ccc(C#Cc2ccc(CNCc3ccccc3)cc2)cc1)C(=O)NO` (centres unmarked) [Compound 5], in assay [1], the “MIC MH 10720” value was at most 0.1 µM. Besides, the “MIC PM 6267” value in [2] was at most 0.1 µM. The “MIC MH 6357” value in [3] is 0.4 µM (≈ 0.188 µg/mL). For the same compound, in assay [4], the “MIC MH 12587” value worked out at 1.6 µM (≈ 0.753 µg/mL). Moreover, the “MIC MH 13065” value in [5] was found to be 0.8 µM (≈ 0.376 µg/mL). Further, the “MIC PM 10775” value in assay [6] is at most 0.1 µM. Also, the “MIC PM 6391” value in assay [7] was 0.2 µM (≈ 0.0941 µg/mL). Besides, the “MIC MH 13093” value in assay [8] was found to be 1.6 µM (≈ 0.753 µg/mL). In [9], the “MIC PM 12080” value is at most 0.1 µM. For the same compound, the “MIC MH 6374” value in assay [10] worked out at 0.8 µM (≈ 0.376 µg/mL).

As to `CNC(=O)C(NC(=O)c1ccc(C#Cc2ccc(CN3CCCC3)cc2)cc1)C(=O)NO` (centres unmarked) [Compound 7], the “MIC MH 10720” value in [1] amounted to 1.6 µM (≈ 0.695 µg/mL). In addition, in [2], the “MIC PM 6267” value was at most 0.1 µM. Besides, the “MIC MH 6357” value in assay [3] was 3.1 µM (≈ 1.35 µg/mL). Also, in [4], the “MIC MH 12587” value was 12.5 µM (≈ 5.43 µg/mL). Further, in assay [5], the “MIC MH 13065” value was determined as 12.5 µM (≈ 5.43 µg/mL). For the same compound, in [6], the “MIC PM 10775” value came out at 0.2 µM (≈ 0.0869 µg/mL). Moreover, the “MIC PM 6391” value in assay [7] amounted to 0.4 µM (≈ 0.174 µg/mL). The “MIC MH 13093” value in assay [8] was found to be 6.3 µM (≈ 2.74 µg/mL). Moreover, the “MIC PM 12080” value in assay [9] was found to be 0.8 µM (≈ 0.348 µg/mL). Moreover, the “MIC MH 6374” value in [10] was determined as 12.5 µM (≈ 5.43 µg/mL).

Consider `CNC(=O)C(C(=O)NO)N(C)C(=O)c1ccc(C#Cc2ccc(CNCc3nccs3)cc2)cc1` (centres unmarked) [Compound 29], for which the “MIC MH 10720” value in assay [1] was 1.6 µM (≈ 0.787 µg/mL). The “MIC PM 6267” value in assay [2] is 0.8 µM (≈ 0.393 µg/mL). Moreover, in [3], the “MIC MH 6357” value came out at 6.3 µM (≈ 3.1 µg/mL). Moreover, the “MIC MH 12587” value in assay [4] amounted to 12.5 µM (≈ 6.14 µg/mL). For the same compound, the “MIC MH 13065” value in assay [5] worked out at 6.3 µM (≈ 3.1 µg/mL). For the same compound, the “MIC PM 10775” value in [6] was found to be 0.2 µM (≈ 0.0983 µg/mL). The “MIC PM 6391” value in [7] came to 3.1 µM (≈ 1.52 µg/mL). In addition, in assay [8], the “MIC MH 13093” value came out at 12.5 µM (≈ 6.14 µg/mL). Moreover, the “MIC PM 12080” value in assay [9] turned out to be 1.6 µM (≈ 0.787 µg/mL). For the same compound, in [10], the “MIC MH 6374” value was 3.1 µM (≈ 1.52 µg/mL).

As to `CNC(=O)C(NC(=O)c1ccc(C#Cc2ccc(CNC3CCCC3)cc2)cc1)C(=O)NO` (centres unmarked) [Compound 9], the “MIC MH 10720” value in assay [1] came to 3.1 µM (≈ 1.39 µg/mL). Moreover, the “MIC PM 6267” value in assay [2] was found to be 0.4 µM (≈ 0.179 µg/mL). In addition, in [3], the “MIC MH 6357” value was found to be 6.3 µM (≈ 2.83 µg/mL). In addition, the “MIC MH 12587” value in [4] turned out to be 25 µM (≈ 11.2 µg/mL). In addition, in [5], the “MIC MH 13065” value amounted to 12.5 µM (≈ 5.61 µg/mL). For the same compound, the “MIC PM 10775” value in [6] came to 0.2 µM (≈ 0.0897 µg/mL). Further, the “MIC PM 6391” value in assay [7] was determined as 0.4 µM (≈ 0.179 µg/mL). In addition, the “MIC MH 13093” value in [8] stood at 12.5 µM (≈ 5.61 µg/mL). The “MIC PM 12080” value in assay [9] was 0.4 µM (≈ 0.179 µg/mL). In addition, the “MIC MH 6374” value in [10] was determined as 25 µM (≈ 11.2 µg/mL).

Consider `CNC(=O)C(NC(=O)c1ccc(C#Cc2ccc(CNCC3CCCO3)cc2)cc1)C(=O)NO` (centres unmarked) [Compound 17], for which the “MIC MH 10720” value in [1] amounted to 0.8 µM (≈ 0.372 µg/mL). Also, in assay [2], the “MIC PM 6267” value is at most 0.1 µM. For the same compound, in assay [3], the “MIC MH 6357” value is 3.1 µM (≈ 1.44 µg/mL). Also, in assay [4], the “MIC MH 12587” value came out at 12.5 µM (≈ 5.81 µg/mL). Further, in [5], the “MIC MH 13065” value worked out at 3.1 µM (≈ 1.44 µg/mL). The “MIC PM 10775” value in [6] is at most 0.1 µM. The “MIC PM 6391” value in [7] was found to be 0.4 µM (≈ 0.186 µg/mL). Further, the “MIC MH 13093” value in assay [8] was determined as 12.5 µM (≈ 5.81 µg/mL). For the same compound, the “MIC PM 12080” value in assay [9] came out at 0.2 µM (≈ 0.0929 µg/mL). Also, the “MIC MH 6374” value in [10] is 6.3 µM (≈ 2.93 µg/mL).

On to `CNC(=O)C(NC(=O)c1ccc(C#Cc2ccc(CNCc3cccnc3)cc2)cc1)C(=O)NO` (centres unmarked) [Compound 11], for which, in assay [1], the “MIC MH 10720” value stood at 0.2 µM (≈ 0.0943 µg/mL). For the same compound, the “MIC PM 6267” value in [2] was at most 0.1 µM. Moreover, the “MIC MH 6357” value in assay [3] is 0.4 µM (≈ 0.189 µg/mL). The “MIC MH 12587” value in [4] stood at 0.8 µM (≈ 0.377 µg/mL). The “MIC MH 13065” value in [5] is 0.8 µM (≈ 0.377 µg/mL). Besides, the “MIC PM 10775” value in assay [6] was at most 0.1 µM. Moreover, the “MIC PM 6391” value in assay [7] came to 0.2 µM (≈ 0.0943 µg/mL). The “MIC MH 13093” value in [8] worked out at 1.6 µM (≈ 0.754 µg/mL). For the same compound, the “MIC PM 12080” value in [9] was at most 0.1 µM. Besides, the “MIC MH 6374” value in [10] amounted to 0.8 µM (≈ 0.377 µg/mL).

(Values after US12157717B2, “Compounds for the treatment of bovine or swine respiratory disease” (Intervet Inc., priority 2018, dated 2024).)
